A short description of series [1]: Cytotoxicity determination in HepG2.2.15 cells (CCK-8). The class given is cell-based. The following applies: human, 6 days of compound treatment, CCK-8, highest concentration 100 μM. The method in brief: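 HepG2.2.15 cells seeded at 5,000 cells/well in 2% FBS medium, incubated overnight at 37° C., then treated 6 days with compounds (8 points, 3-fold dilutions, top 100 μM), medium refreshed once midway. CCK-8 added for 2.5 h; A450 read against 630 nm reference; CC50 calculated, averaged over repeats.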

The subject of series [2] is HBV. In words: HBV inhibitory activity: HBV DNA in the culture medium of HepG2.2.15 cells by q-PCR. The class given is cell-based. The following applies: Hepatitis B virus, HepG2.2.15, 144 h, HepG2.2.15 cells, 6 days of compound treatment, HBV DNA in culture medium by q-PCR, highest concentration 10 μM; read-out: EC50. The method in brief: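 HepG2.2.15 cells in 2% FBS medium, 40,000 per well, treated 6 days with compound (medium refreshed once), eight 3-fold dilutions from 10 μM top. HBV DNA extracted from culture medium and quantified by q-PCR; EC50 averaged over repeats. Cytotoxicity run in parallel at 5,000 cells per well, top 100 μM, giving CC50.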

The record followed here is patent US11639350B2, “Heteroaryldihydropyrimidine derivatives and methods of treating hepatitis B infections” (Janssen Pharmaceutica NV, priority 2018, dated 2023).

Broadly, the CC50 is the concentration that lowers cell viability or growth by half. Broadly, the EC50 is the concentration needed to bring the measured effect to its halfway point.

On to `CCOC(=O)C1=C(C2CCN(S(=O)(=O)[C@H]3C[C@@H](C(=O)O)C3)CC2)NC(c2nccs2)=NC1c1ccc(F)c(F)c1Cl` (relative stereo) [Compound 370D, (cis)-3-((4-(6-(2-Chloro-3,4-difluorophenyl)-5-(ethoxycarbonyl)-2-(thiazol-2-yl)-3,6-dihydropyrimidin-4-yl)piperidin-1-yl)sulfonyl)cyclobutanecarboxylic Acid], for which the midpoint of cytotoxicity in series [1], the CC50 at 6 days, lay at 26300 nM. The EC50 in series [2] worked out at 40 nM.
Take `COC(=O)C1=C(C2CN(S(=O)(=O)c3ccccc3)C2)NC(c2nccs2)=NC1c1ccc(F)cc1Cl` (single isomer, unassigned) [Compound 130A, 6-(1-Benzenesulfonyl-azetidin-3-yl)-4-(2-chloro-4-fluoro-phenyl)-2-thiazol-2-yl-1,4-dihydro-pyrimidine-5-carboxylic acid methyl ester]: the CC50 at 6 days in series [1] was over 10000 nM. Besides, the EC50 in series [2] stood at 317 nM.
In turn, `COC(=O)C1=C([C@H]2CCC[C@@H](CO)C2)NC(c2nccs2)=NC1c1ccc(F)cc1Cl` (single isomer, unassigned) [Compound 173A, Methyl 4-(2-chloro-4-fluorophenyl)-6-((cis)-3-(hydroxymethyl)cyclohexyl)-2-(thiazol-2-yl)-1,4-dihydropyrimidine-5-carboxylate] yielded a CC50 at 6 days in series [1] of 18600 nM. The EC50 in series [2] worked out at 76 nM.
In series [1], `COC(=O)C1=C([C@H]2CC[C@H](S(=O)(=O)N3CC[C@@H](C(=O)O)C3)CC2)NC(c2nccs2)=NC1c1ccc(F)c(F)c1Cl` (stereo in doubt) [Compound 293C, (trans)-1-((4-((R)-6-(2-Chloro-3,4-difluorophenyl)-5-(methoxycarbonyl)-2-(thiazol-2-yl)-3,6-dihydropyrimidin-4-yl)cyclohexyl)-sulfonyl)pyrrolidine-3-carboxylic Acid] came in with a CC50 at 6 days of 85700 nM. In series [2], the EC50 came to 150 nM.
Take `CCOC(=O)C1=C(C2CCN(S(=O)(=O)C3CC(C)(C(=O)O)C3)CC2)NC(c2nccs2)=NC1c1ccc(F)cc1C` (stereo not drawn) [Compound 420A, (trans)-3-((4-(5-(Ethoxycarbonyl)-6-(4-fluoro-2-methylphenyl)-2-(thiazol-2-yl)-3,6-dihydropyrimidin-4-yl)piperidin-1-yl)sulfonyl)-1-methylcyclobutanecarboxylic Acid]: it took 20800 nM to reach half-maximal cytotoxicity in series [1] (CC50 at 6 days). For the same compound, the EC50 in series [2] worked out at 76 nM.
With `CCOC(=O)C1=C([C@@H]2C[C@H]2CC(=O)O)NC(c2nccs2)=NC1c1ccc(F)cc1Cl` (single isomer, unassigned) [Compound 92, 2-(trans-2-(6-(2-Chloro-4-fluorophenyl)-5-(ethoxycarbonyl)-2-(thiazol-2-yl)-3,6-dihydropyrimidin-4-yl)cyclopropyl)acetic Acid], in series [1], the CC50 at 6 days was 99000 nM. In series [2], the EC50 amounted to 326 nM.
Taken in the same sequence, the figures for `COC(=O)C1=C(C2CCN(S(=O)(=O)C3CCC(CC(=O)O)CC3)CC2)NC(c2nccs2)=NC1c1ccc(F)c(F)c1Cl` (stereo not shown) [Compound 478, 2-(4-((4-(6-(2-Chloro-3,4-difluorophenyl)-5-(methoxycarbonyl)-2-(thiazol-2-yl)-3,6-dihydropyrimidin-4-yl)piperidin-1-yl)sulfonyl)cyclohexyl)acetic Acid] were 23400 nM and 6 nM.
In series [1], `CCOC(=O)C1=C([C@H]2CC[C@H](C(=O)O)CC2)NC(c2nccs2)=NC1c1ccc(F)c(F)c1C` (stereo partly shown) [Compound 154A] displayed a half-maximal cytotoxic concentration (CC50) at 6 days of 30700 nM. Besides, the half-maximal effective concentration (EC50) in series [2] turned out to be 71 nM.
Compound `COC(=O)C1=C(C2CCN(S(=O)(=O)N3CCOCC3)CC2)NC(c2nccs2)=NC1c1ccc(F)cc1Cl` (stereo not shown) [Compound 164, Methyl 4-(2-chloro-4-fluorophenyl)-6-(1-(morpholinosulfonyl)piperidin-4-yl)-2-(thiazol-2-yl)-1,4-dihydropyrimidine-5-carboxylate] had a CC50 at 6 days in series [1] of 57400 nM. Moreover, in series [2], the EC50 amounted to 58 nM.
Compound `COC(=O)C1=C(C2CCCC3(C2)OCCO3)NC(c2nccs2)=NC1c1ccc(F)cc1Cl` (stereo not shown) [Compound 218, Methyl 4-(2-chloro-4-fluorophenyl)-6-(1,4-dioxaspiro[4.5]decan-7-yl)-2-(thiazol-2-yl)-1,4-dihydropyrimidine-5-carboxylate] returned a CC50 at 6 days in series [1] of 29700 nM. Also, the EC50 in series [2] was determined as 148 nM.
With `COC(=O)C1=C([C@H]2CC[C@H](C(=O)OC)CC2)NC(c2ncc(F)cc2F)=NC1c1ccc(F)cc1Cl` (single isomer, unassigned) [Compound 174A, Methyl 4-(2-chloro-4-fluorophenyl)-2-(3,5-difluoropyridin-2-yl)-6-((trans)-4-(methoxycarbonyl)cyclohexyl)-1,4-dihydropyrimidine-5-carboxylate], the midpoint of cytotoxicity in series [1], the CC50 at 6 days, lay at 19400 nM. For the same compound, in series [2], the EC50 was 128 nM.
As for `COC(=O)C1=C([C@H]2CC[C@H](NS(C)(=O)=O)CC2)NC(c2nccs2)=NC1c1ccc(F)cc1Cl` (single isomer, unassigned) [Compound 126B, Methyl 4-(2-chloro-4-fluorophenyl)-6-(trans-4-(methyl-sulfonamido)cyclohexyl)-2-(thiazol-2-yl)-1,4-dihydropyrimidine-5-carboxylate], half-maximal cytotoxicity in series [1] (CC50 at 6 days) was put at 31800 nM. In series [2], the EC50 stood at 343 nM.
In turn, `COC(=O)C1=C(C2CCN(S(=O)(=O)C3CC3)CC2)NC(c2nccs2)=NC1c1ccc(F)cc1Cl` (stereo not shown) [Compound 100, Methyl 4-(2-chloro-4-fluorophenyl)-6-(1-(cyclopropylsulfonyl)-piperidin-4-yl)-2-(thiazol-2-yl)-1,4-dihydropyrimidine-5-carboxylate] had a CC50 at 6 days in series [1] of 7200 nM. Besides, the EC50 in series [2] came to 166 nM.
The matching figures for `COC(=O)C1=C([C@H]2CC[C@H](C(=O)O)CC2)NC(c2nccs2)=NC1c1cccc(F)c1Br` (stereo partly shown) [Compound 152A]: 39500 nM and 92 nM.
`COC(=O)C1=C(C2CCCN(S(C)(=O)=O)CC2)NC(c2nccs2)=NC1c1ccc(F)cc1Cl` (single isomer, unassigned) [Compound 383A, Methyl 4-(2-chloro-4-fluorophenyl)-6-(1-(methylsulfonyl)azepan-4-yl)-2-(thiazol-2-yl)-1,4-dihydropyrimidine-5-carboxylate] registered a CC50 at 6 days in series [1] of 32900 nM. Also, the EC50 in series [2] is 87 nM.
In series [1], `COC(=O)C1=C(C2CC3CCC(C2)N3S(C)(=O)=O)NC(c2nccs2)=NC1c1ccc(F)cc1Cl` (single isomer, unassigned) [Compound 38B, 4-(2-Chloro-4-fluoro-phenyl)-6-(8-methanesulfonyl-8-aza-bicyclo[3.2.1]oct-3-yl)-2-thiazol-2-yl-1,4-dihydro-pyrimidine-5-carboxylic Acid Methyl Ester] had a CC50 at 6 days of 34100 nM. In addition, in series [2], the EC50 is 239 nM.
The compound `CCOC(=O)C1=C(C2CCN(S(=O)(=O)[C@H]3C[C@@H](C(=O)O)C3)CC2)NC(c2nccs2)=NC1c1ccc(F)c(F)c1C` (relative stereo) [Compound 343D, (cis)-3-((4-(6-(3,4-difluoro-2-methylphenyl)-5-(ethoxycarbonyl)-2-(thiazol-2-yl)-3,6-dihydropyrimidin-4-yl)piperidin-1-yl)sulfonyl)cyclobutane-carboxylic Acid] displayed a half-maximal cytotoxic concentration (CC50) at 6 days in series [1] of 24000 nM. For the same compound, in series [2], the EC50 came out at 53 nM.
